Positions count from the first letter of the chain named. Several values for one entry are separate records, joined by “and”; a condition that tells them apart may be missing. Equal entries are not always repeated.
What was measured:
Assay type in all cases: binding
PotF_Dist = target: T1, PotF_Dist (Escherichia coli, UniProt P31133, A182D/L348Q/S87Y); experiment: ITC, PotF_Dist (S87Y, A182D, L348Q); conditions: 293 K
T1 construct: without the N-terminal signal peptide; made in house; host or cells: E. coli BL21 (DE3)
T1 sequence (P31133 27-370 S87Y/A182D/L348Q): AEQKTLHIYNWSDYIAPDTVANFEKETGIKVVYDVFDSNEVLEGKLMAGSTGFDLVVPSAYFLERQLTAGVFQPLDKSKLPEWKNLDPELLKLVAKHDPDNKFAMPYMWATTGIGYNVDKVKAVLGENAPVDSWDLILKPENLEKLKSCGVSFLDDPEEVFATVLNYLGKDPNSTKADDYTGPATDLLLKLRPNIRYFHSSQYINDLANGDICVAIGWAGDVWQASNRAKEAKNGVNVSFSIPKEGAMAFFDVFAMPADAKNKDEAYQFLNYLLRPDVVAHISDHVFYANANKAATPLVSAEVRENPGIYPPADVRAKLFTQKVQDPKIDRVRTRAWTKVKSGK
Experimental: (§1) Ligands were always freshly prepared in the exact same buffer as was used for the size exclusion run. Samples were degassed, and temperature was equilibrated using a degassing station (TA Instruments). About 400 μl protein sample of different concentrations (Table S5) depending on affinity was transferred into the sample cell of a nanoITC (TA Instruments), and 50 μl of about tenfold concentrated ligand solution was loaded into the injection needle. Multiple injection measurements were carried out at 293 K, 300 rpm stirring rate, and 250 s spacings between each 2 μl injection. The heat quantity past injection was determined by integration of the measured peaks. Every protein–ligand combination was measured as biological triplicate. Subtraction of heat of dilution measurements, peak integration, and one site binding fits were done with NanoAnalyze (TA Instruments). Reported errors are the errors between fits of the measured triplicates.

PotF_Abox-S87Y = target: T2, PotF_Abox-S87Y (Escherichia coli, UniProt P31133, F276W/S87Y); experiment: ITC, PotF_Abox-S87Y (F276W, S87Y); conditions: 293 K; for n: ITC binding stoichiometry; for ΔG / ΔH / −TΔS / Kd: ITC; for Kd: 50 mM Tris pH 8, 300 mM NaCl, biological triplicates
T2 construct: without the N-terminal signal peptide; made in house; host or cells: E. coli BL21 (DE3)
T2 sequence (P31133 27-370 S87Y/F276W): T1 sequence (P31133 27-370 S87Y/A182D/L348Q) with D156A, F250W, Q322L
Experimental: as §1

PotF/D–E39D–F88A–S247D = target: T3, PotF/D–E39D–F88A–S247D (Escherichia coli, UniProt P31133, A182D/F276W/F88A/L348Q/S38T/S87Y); experiment: ITC, PotF/D–E39D–F88A–S247D; conditions: 293 K; for n: ITC binding stoichiometry; for ΔG / ΔH / −TΔS / Kd: ITC; for Kd: 50 mM Tris pH 8, 300 mM NaCl, biological triplicates
T3 construct: without the N-terminal signal peptide; made in house; host or cells: E. coli BL21 (DE3)
T3 sequence (P31133 27-370 S38T/S87Y/F88A/A182D/F276W/L348Q): T1 sequence (P31133 27-370 S87Y/A182D/L348Q) with S12T, F62A, F250W
Experimental: as §1

PotF_Abox = target: T4, PotF_Abox (Escherichia coli, UniProt P31133, F276W); experiment: ITC, PotF_Abox (F276W); conditions: for n: ITC binding stoichiometry; for n / Kd / ΔG / ΔH / −TΔS: 293 K, PotF_Abox; for Kd: 50 mM Tris pH 8, 300 mM NaCl, biological triplicates
T4 construct: without the N-terminal signal peptide; made in house; host or cells: E. coli BL21 (DE3)
T4 sequence (P31133 27-370 F276W): T1 sequence (P31133 27-370 S87Y/A182D/L348Q) with Y61S, D156A, F250W, Q322L
Experimental: as §1

PotF_Abox-L348Q = target: T5, PotF_Abox-L348Q (Escherichia coli, UniProt P31133, F276W/L348Q); experiment: ITC, PotF_Abox-L348Q (F276W, L348Q); conditions: 293 K; for n: ITC binding stoichiometry; for ΔG / ΔH / −TΔS / Kd: ITC; for Kd: 50 mM Tris pH 8, 300 mM NaCl, biological triplicates
T5 construct: without the N-terminal signal peptide; made in house; host or cells: E. coli BL21 (DE3)
T5 sequence (P31133 27-370 F276W/L348Q): T1 sequence (P31133 27-370 S87Y/A182D/L348Q) with Y61S, D156A, F250W
Experimental: as §1

[1] = ITC, 50 mM Tris pH 8, 300 mM NaCl, biological triplicates
[2] = ITC, PotF_Abox compared with wildtype PotF

Structure (SMILES): NCCCCNCCCN [SPD, spermidine]
- n (PotF_Dist; ITC binding stoichiometry): 0.91 ± 0.02
- ΔG (PotF_Dist; ITC): -5.48 ± 0.20 kcal/mol
- ΔH (PotF_Dist; ITC): -1.83 ± 0.08 kcal/mol
- −TΔS (PotF_Dist; ITC): -3.65 ± 0.28 kcal/mol
- KD (PotF_Dist; [1]): very low
- Kd (PotF_Dist; [1]): 88.2 ± 33.1 µM
- n (PotF_Abox-S87Y): 0.97 ± 0.02
- ΔG (PotF_Abox-S87Y): -6.30 ± 0.02 kcal/mol
- ΔH (PotF_Abox-S87Y): -5.66 ± 0.12 kcal/mol
- −TΔS (PotF_Abox-S87Y): -0.65 ± 0.12 kcal/mol
- Kd (PotF_Abox-S87Y): 20 ± 0.7 µM
- n (PotF/D–E39D–F88A–S247D): 0.91 ± 0.01
- ΔG (PotF/D–E39D–F88A–S247D): -7.82 ± 0.06 kcal/mol
- ΔH (PotF/D–E39D–F88A–S247D): -4.75 ± 0.09 kcal/mol
- −TΔS (PotF/D–E39D–F88A–S247D): -3.07 ± 0.14 kcal/mol
- Kd (PotF/D–E39D–F88A–S247D): 1.48 ± 0.14 µM
- n (PotF_Abox): 0.96 ± 0.06
- Kd (PotF_Abox; ITC): ~11 µM and 11.1 µM
- ΔG (PotF_Abox; ITC): -6.65 ± 0.04 kcal/mol
- ΔH (PotF_Abox; ITC): -6.25 ± 0.16 kcal/mol
- −TΔS (PotF_Abox; ITC): -0.40 ± 0.21 kcal/mol
- Δ(−TΔS) (PotF_Abox; [2]): +2.02 kcal/mol
- n (PotF_Abox-L348Q): 0.98 ± 0.01
- ΔG (PotF_Abox-L348Q): -7.83 ± 0.68 kcal/mol
- ΔH (PotF_Abox-L348Q): -7.72 ± 0.03 kcal/mol
- −TΔS (PotF_Abox-L348Q): -0.11 ± 0.69 kcal/mol
- Kd (PotF_Abox-L348Q): ~2.6 µM and 3.26 µM

Structure (SMILES): NCCCCN [PUT, putrescine]
- KD (PotF_Dist; [1]): abolishes association
- n (PotF_Abox-S87Y): 0.92 ± 0.03
- ΔG (PotF_Abox-S87Y): -6.47 ± 0.02 kcal/mol
- ΔH (PotF_Abox-S87Y): -9.97 ± 0.20 kcal/mol
- −TΔS (PotF_Abox-S87Y): 3.50 ± 0.18 kcal/mol
- Kd (PotF_Abox-S87Y): 14.9 ± 0.54 µM
- n (PotF/D–E39D–F88A–S247D): 0.92 ± 0.04
- ΔG (PotF/D–E39D–F88A–S247D): -5.23 ± 0.02 kcal/mol
- ΔH (PotF/D–E39D–F88A–S247D): -5.21 ± 0.14 kcal/mol
- −TΔS (PotF/D–E39D–F88A–S247D): -0.02 ± 0.15 kcal/mol
- Kd (PotF/D–E39D–F88A–S247D): 126 ± 5.29 µM
- n (PotF_Abox): 0.90 ± 0.03
- Kd (PotF_Abox; ITC): ~0.21 µM and 0.21 µM
- ΔG (PotF_Abox; ITC): -8.97 ± 0.10 kcal/mol
- ΔH (PotF_Abox; ITC): -22.25 ± 0.77 kcal/mol
- −TΔS (PotF_Abox; ITC): 13.28 ± 0.75 kcal/mol
- ΔΔH (PotF_Abox; [2]): +0.77 kcal/mol
- n (PotF_Abox-L348Q): 0.94 ± 0.03
- ΔG (PotF_Abox-L348Q): -7.48 ± 0.02 kcal/mol
- ΔH (PotF_Abox-L348Q): -14.22 ± 0.75 kcal/mol
- −TΔS (PotF_Abox-L348Q): 6.74 ± 0.74 kcal/mol
- Kd (PotF_Abox-L348Q): ~3.3 µM and 2.66 µM

Source: paper PMC8666671, “Fine-tuning spermidine binding modes in the putrescine binding protein PotF” (The Journal of Biological Chemistry, 2021)
